Experimental data from patent US20140039044A1, “Hydroxylated Polymethoxyflavone Compositions” (WLLGEN, INC., priority 2006, published 2014).

What was measured:
Format in all cases: cell-based, mouse
COX-2 mRNA = experiment: LPS-induced COX-2 mRNA expression by real-time PCR; details: RAW264.7 macrophages, 100 ng/mL LPS, 20 μM, relative to G3PDH, FIG. 6
Protocol: Bacterial lipopolysaccharide (LPS)-induced COX-2 expression was monitored in RAW264.7 macrophages, as previously described. Briefly, COX-2 expression was determined in untreated cells and cells treated with 100 ng/mL LPS either in the absence or the presence of 20 μM 5-hydroxy-3,6,7,8,3′,4′-hexamethoxyflavone. COX-2 mRNA levels were determined by real-time PCR where the values obtained were relative to expression of glyceraldehyde-3-phosphate dehydrogenase (G3PDH).

iNOS = experiment: Western blot of LPS-induced iNOS protein expression; details: LPS-activated macrophages, 30 μM, 24 h, FIG. 4
Protocol: (§1) Proteins were isolated from cells after treatment with test compounds for 24 h. Total protein was extracted by adding 200 μL of gold lysis buffer (50 mM Tris-HCl, pH 7.4; 1 mM NaF; 150 mM NaCl; 1 mM EGTA; 1 mM phenylmethanesulfonyl fluoride; 1% NP-40; and 10 μg/mL leupeptin) to the cell pellets, which were kept on ice for 30 minutes, followed by centrifugation at 10,000×g for 30 min at 4° C. The protein concentrations of the cytosolic fraction (supernatant) were measured by BIO-RAD Protein Assay (Bio-Rad Laboratories, Munich, Germany). Samples containing 50 μg of protein were electrophoretically separated by SDS-PAGE and transferred to PVDF membrane (Millipore Corp., Bedford, Mass.) using standard procedures. See Burnette (1981) Anal. Biochem. 112:195-203. […]
(§2) Western blot analysis of inhibition of LPS-induced iNOS and COX-2 protein expression by PMFs was analyzed, following procedures described above. […] Equal amounts of total proteins (50 μg) were subjected to 10% SDS-PAGE, and expression of iNOS, COX-2 and β-actin protein was detected by Western blot using specific antibodies.

COX-2 = experiment: Western blot of LPS-induced COX-2 protein expression; details: LPS-activated macrophages, 30 μM, 24 h, FIG. 4
Protocol: as §1, §2

Compound: COc1ccc(-c2oc3c(OC)c(OC)c(OC)c(O)c3c(=O)c2OC)cc1OC [Compound C, 5-hydroxy-3,6,7,8,3′,4′-hexamethoxyflavone]
- Inhibition of LPS-induced COX-2 mRNA expression, in words (COX-2 mRNA): inhibits LPS-induced COX-2 mRNA expression

Compound: COc1ccc(-c2cc(=O)c3c(O)c(OC)c(OC)c(OC)c3o2)cc1O [Compound K, 5,3′-dihydroxy-6,7,8,4′-tetramethoxyflavone]
- Inhibition of iNOS expression (Western blot), in words (iNOS): most potent inhibitor of iNOS expression

Compound: COc1c(OC)c(OC)c2c(=O)cc(-c3ccc(O)c(O)c3)oc2c1OC [H, 3′,4′-dihydroxy-5,6,7,8-tetramethoxyflavone]
- Inhibition of COX-2 expression (Western blot), in words (COX-2): most potent inhibitor of COX-2 expression
